Measured values from patent US9695155B2, “Herbicidal substituted pyrimidinyloxy benzene compounds” (E. I. DU PONT DE NEMOURS AND COMPANY, priority 2013, dated 2017).

Experiments:
large (Lg) crabgrass = assay: Test A preemergence; assay type: in vivo, Digitaria sanguinalis; conditions: Digitaria sanguinalis, pre-emergence, 240 h
In short: (§1)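 Visual 0–100 rating (100 = complete control) taken about 10 d post-treatment relative to untreated checks. Preemergence: directed soil spray on sown loam/sand pots. Postemergence: seedlings 2–10 cm, 1–2 leaf. Non-phytotoxic solvent formulation with surfactant.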

pigweed [1] = assay: Test A preemergence; assay type: in vivo, Amaranthus retroflexus; conditions: Amaranthus retroflexus, pre-emergence
In short: as §1

blackgrass [2] = assay: Test C preemergence; assay type: in vivo, Alopecurus myosuroides; conditions: Alopecurus myosuroides, pre-emergence
In short: (§2)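 Plants were kept under greenhouse conditions for 13–15 days following spray. Pre-emergent application went to soil (loam–sand), post-emergent to foliage at 1–4 leaves. Evaluation: visual, percent control against untreated checks.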

Italian ryegrass = assay: Test C preemergence; assay type: in vivo, Lolium multiflorum; conditions: Lolium multiflorum, pre-emergence
In short: as §2

morningglory = assay: Test C preemergence; assay type: in vivo, Ipomoea coccinea; conditions: Ipomoea, pre-emergence
In short: as §2

yellow nutsedge [3] = assay: Test C preemergence; assay type: in vivo, Cyperus esculentus; conditions: Cyperus, pre-emergence
In short: as §2

pigweed [4] = assay: Test C preemergence; assay type: in vivo, Amaranthus retroflexus; conditions: Amaranthus retroflexus, pre-emergence
In short: as §2

ragweed = assay: Test C preemergence; assay type: in vivo, Ambrosia elatior; conditions: Ambrosia artemisiifolia, pre-emergence
In short: as §2

soybean = assay: Test C preemergence; assay type: in vivo, Glycine max; conditions: Glycine max, pre-emergence
In short: as §2

blackgrass [5] = assay: Test C postemergence; assay type: in vivo, Alopecurus myosuroides; conditions: Alopecurus myosuroides, post-emergence
In short: as §2

wheat, winter = assay: Test C postemergence; assay type: in vivo, Triticum aestivum; conditions: Triticum aestivum, post-emergence
In short: as §2

corn = assay: Test C postemergence; assay type: in vivo, Zea mays; conditions: Zea mays, post-emergence
In short: as §2

giant foxtail = assay: Test C postemergence; assay type: in vivo, Setaria faberii; conditions: Setaria faberi, post-emergence
In short: as §2

yellow nutsedge [6] = assay: Test C postemergence; assay type: in vivo, Cyperus esculentus; conditions: Cyperus, post-emergence
In short: as §2

barnyardgrass = assay: Test C postemergence; assay type: in vivo, Echinochloa crus-galli; conditions: Echinochloa crus-galli, post-emergence
In short: as §2

wild oat = assay: Test C postemergence; assay type: in vivo, Avena fatua; conditions: Avena fatua, post-emergence
In short: as §2

chickweed = assay: Test C postemergence; assay type: in vivo, Stellaria media; conditions: Stellaria media, post-emergence
In short: as §2

N#Cc1cccc(Oc2ncc(Cl)cn2)c1-n1cc(C(F)(F)F)cn1 [Compound 58, 3-[(5-chloro-2-pyrimidinyl)oxy]-2-[4-(trifluoromethyl)-1H-pyrazol-1-yl]benzonitrile]
pest or weed control at 125 g/ha (large (Lg) crabgrass; 125 g ai/ha, 0 to 100 scale where 0 is no effect and 100 is complete control, read-out: Plant response rating, Crabgrass, Large): 100%
pest or weed control at 500 g/ha (large (Lg) crabgrass; 500 g ai/ha, 0 to 100 scale, 0 no effect, 100 complete control, approx. 10 days, read-out: Crabgrass, Large plant response rating): 100%
pest or weed control at 125 g/ha (pigweed [1]; 125 g ai/ha, 0 to 100 scale where 0 is no effect and 100 is complete control, read-out: Plant response rating, Pigweed): 100%
pest or weed control at 500 g/ha (pigweed [1]; 240 h, 500 g ai/ha, 0 to 100 scale, 0 no effect, 100 complete control, approx. 10 days, read-out: Pigweed plant response rating): 100%
pest or weed control at 62 g/ha (blackgrass [2]; 62 g ai/ha, preemergence, scale 0 (no effect) to 100 (complete control), read-out: Blackgrass plant response rating): 90%
pest or weed control at 125 g/ha (blackgrass [2]; 125 g ai/ha, preemergence, scale 0 (no effect) to 100 (complete control), read-out: Blackgrass plant response rating): 90%
pest or weed control at 250 g/ha (blackgrass [2]; 250 g ai/ha, preemergence, scale 0 (no effect) to 100 (complete control), read-out: Blackgrass plant response rating): 90%
pest or weed control at 31 g/ha (blackgrass [2]; Preemergence, 31 g ai/ha, scale 0 to 100, 0 no effect, 100 complete control, read-out: Plant response rating, Blackgrass): 90%
pest or weed control at 62 g/ha (Italian ryegrass; 62 g ai/ha, preemergence, scale 0 (no effect) to 100 (complete control), read-out: Ryegrass, Italian plant response rating): 90%
pest or weed control at 125 g/ha (Italian ryegrass; 125 g ai/ha, preemergence, scale 0 (no effect) to 100 (complete control), read-out: Ryegrass, Italian plant response rating): 90%
pest or weed control at 250 g/ha (Italian ryegrass; 250 g ai/ha, preemergence, scale 0 (no effect) to 100 (complete control), read-out: Ryegrass, Italian plant response rating): 90%
pest or weed control at 31 g/ha (Italian ryegrass; Preemergence, 31 g ai/ha, scale 0 to 100, 0 no effect, 100 complete control, read-out: Plant response rating, Ryegrass, Italian): 90%
pest or weed control at 62 g/ha (morningglory; 62 g ai/ha, preemergence, scale 0 (no effect) to 100 (complete control), read-out: Morningglory plant response rating): 100%
pest or weed control at 125 g/ha (morningglory; 125 g ai/ha, preemergence, scale 0 (no effect) to 100 (complete control), read-out: Morningglory plant response rating): 100%
pest or weed control at 250 g/ha (morningglory; 250 g ai/ha, preemergence, scale 0 (no effect) to 100 (complete control), read-out: Morningglory plant response rating): 100%
pest or weed control at 31 g/ha (morningglory; Preemergence, 31 g ai/ha, scale 0 to 100, 0 no effect, 100 complete control, read-out: Plant response rating, Morningglory): 100%
pest or weed control at 62 g/ha (yellow nutsedge [3]; 62 g ai/ha, preemergence, scale 0 (no effect) to 100 (complete control), read-out: Nutsedge, Yellow plant response rating): 85%
pest or weed control at 125 g/ha (yellow nutsedge [3]; 125 g ai/ha, preemergence, scale 0 (no effect) to 100 (complete control), read-out: Nutsedge, Yellow plant response rating): 90%
pest or weed control at 250 g/ha (yellow nutsedge [3]; 250 g ai/ha, preemergence, scale 0 (no effect) to 100 (complete control), read-out: Nutsedge, Yellow plant response rating): 95%
pest or weed control at 31 g/ha (yellow nutsedge [3]; Preemergence, 31 g ai/ha, scale 0 to 100, 0 no effect, 100 complete control, read-out: Plant response rating, Nutsedge, Yellow): 70%
pest or weed control at 62 g/ha (pigweed [4]; 62 g ai/ha, preemergence, scale 0 (no effect) to 100 (complete control), read-out: Pigweed plant response rating): 100%
pest or weed control at 125 g/ha (pigweed [4]; 125 g ai/ha, preemergence, scale 0 (no effect) to 100 (complete control), read-out: Pigweed plant response rating): 100%
pest or weed control at 250 g/ha (pigweed [4]; 250 g ai/ha, preemergence, scale 0 (no effect) to 100 (complete control), read-out: Pigweed plant response rating): 100%
pest or weed control at 31 g/ha (pigweed [4]; Preemergence, 31 g ai/ha, scale 0 to 100, 0 no effect, 100 complete control, read-out: Plant response rating, Pigweed): 100%
pest or weed control at 62 g/ha (ragweed; 62 g ai/ha, preemergence, scale 0 (no effect) to 100 (complete control), read-out: Ragweed plant response rating): 100%
pest or weed control at 125 g/ha (ragweed; 125 g ai/ha, preemergence, scale 0 (no effect) to 100 (complete control), read-out: Ragweed plant response rating): 100%
pest or weed control at 250 g/ha (ragweed; 250 g ai/ha, preemergence, scale 0 (no effect) to 100 (complete control), read-out: Ragweed plant response rating): 100%
pest or weed control at 31 g/ha (ragweed; Preemergence, 31 g ai/ha, scale 0 to 100, 0 no effect, 100 complete control, read-out: Plant response rating, Ragweed): 85%
plant injury at 62 g/ha (soybean; 62 g ai/ha, preemergence, scale 0 (no effect) to 100 (complete control), read-out: Soybean plant response rating): 95%
plant injury at 125 g/ha (soybean; 125 g ai/ha, preemergence, scale 0 (no effect) to 100 (complete control), read-out: Soybean plant response rating): 98%
plant injury at 250 g/ha (soybean; 250 g ai/ha, preemergence, scale 0 (no effect) to 100 (complete control), read-out: Soybean plant response rating): 98%
plant injury at 31 g/ha (soybean; Preemergence, 31 g ai/ha, scale 0 to 100, 0 no effect, 100 complete control, read-out: Plant response rating, Soybean): 90%
pest or weed control at 125 g/ha (blackgrass [5]; 125 g ai/ha, postemergence, read-out: Plant response rating (0 to 100), Blackgrass): 30%
pest or weed control at 250 g/ha (blackgrass [5]; 250 g ai/ha, postemergence, read-out: Plant response rating (0 to 100), Blackgrass): 55%
pest or weed control at 31 g/ha (blackgrass [5]; Postemergence, 31 g ai/ha, scale 0 to 100 (0 no effect, 100 complete control), 13 to 15 days, read-out: Plant response rating, Blackgrass): 10%
pest or weed control at 62 g/ha (blackgrass [5]; Postemergence, 62 g ai/ha, scale 0 to 100 (0 no effect, 100 complete control), read-out: Plant response rating, Blackgrass): 15%
plant injury at 125 g/ha (wheat, winter; 125 g ai/ha, postemergence, read-out: Plant response rating (0 to 100), Wheat): 25%
plant injury at 250 g/ha (wheat, winter; 250 g ai/ha, postemergence, read-out: Plant response rating (0 to 100), Wheat): 30%
plant injury at 31 g/ha (wheat, winter; Postemergence, 31 g ai/ha, scale 0 to 100 (0 no effect, 100 complete control), 13 to 15 days, read-out: Plant response rating, Wheat): 10%
plant injury at 62 g/ha (wheat, winter; Postemergence, 62 g ai/ha, scale 0 to 100 (0 no effect, 100 complete control), read-out: Plant response rating, Wheat): 15%
plant injury at 125 g/ha (corn; 125 g ai/ha, postemergence, read-out: Plant response rating (0 to 100), Corn): 25%
plant injury at 250 g/ha (corn; 250 g ai/ha, postemergence, read-out: Plant response rating (0 to 100), Corn): 45%
Corn plant response rating (crop injury, 0 = no effect, 100 = complete kill) at 31 g/ha (corn; Postemergence, 31 g ai/ha, scale 0 to 100 (0 no effect, 100 complete control), 13 to 15 days): 10%
Corn plant response rating (crop injury, 0 = no effect, 100 = complete kill) at 62 g/ha (corn; Postemergence, 62 g ai/ha, scale 0 to 100 (0 no effect, 100 complete control)): 15%
pest or weed control at 125 g/ha (giant foxtail; 125 g ai/ha, postemergence, read-out: Plant response rating (0 to 100), Foxtail, Giant): 80%
pest or weed control at 250 g/ha (giant foxtail; 250 g ai/ha, postemergence, read-out: Plant response rating (0 to 100), Foxtail, Giant): 95%
pest or weed control at 31 g/ha (giant foxtail; Postemergence, 31 g ai/ha, scale 0 to 100 (0 no effect, 100 complete control), 13 to 15 days, read-out: Plant response rating, Foxtail, Giant): 15%
pest or weed control at 62 g/ha (giant foxtail; Postemergence, 62 g ai/ha, scale 0 to 100 (0 no effect, 100 complete control), read-out: Plant response rating, Foxtail, Giant): 40%
pest or weed control at 125 g/ha (yellow nutsedge [6]; 125 g ai/ha, postemergence, read-out: Plant response rating (0 to 100), Nutsedge, Yellow): 15%
pest or weed control at 250 g/ha (yellow nutsedge [6]; 250 g ai/ha, postemergence, read-out: Plant response rating (0 to 100), Nutsedge, Yellow): 15%
pest or weed control at 31 g/ha (yellow nutsedge [6]; Postemergence, 31 g ai/ha, scale 0 to 100 (0 no effect, 100 complete control), 13 to 15 days, read-out: Plant response rating, Nutsedge, Yellow): 5%
pest or weed control at 62 g/ha (yellow nutsedge [6]; Postemergence, 62 g ai/ha, scale 0 to 100 (0 no effect, 100 complete control), read-out: Plant response rating, Nutsedge, Yellow): 5%
pest or weed control at 125 g/ha (barnyardgrass; 125 g ai/ha, postemergence, read-out: Plant response rating (0 to 100), Barnyardgrass): 15%
pest or weed control at 250 g/ha (barnyardgrass; 250 g ai/ha, postemergence, read-out: Plant response rating (0 to 100), Barnyardgrass): 75%
pest or weed control at 31 g/ha (barnyardgrass; Postemergence, 31 g ai/ha, scale 0 to 100 (0 no effect, 100 complete control), 13 to 15 days, read-out: Plant response rating, Barnyardgrass): 5%
pest or weed control at 62 g/ha (barnyardgrass; Postemergence, 62 g ai/ha, scale 0 to 100 (0 no effect, 100 complete control), read-out: Plant response rating, Barnyardgrass): 5%
pest or weed control at 125 g/ha (wild oat; 125 g ai/ha, postemergence, read-out: Plant response rating (0 to 100), Oat, Wild): 45%
pest or weed control at 250 g/ha (wild oat; 250 g ai/ha, postemergence, read-out: Plant response rating (0 to 100), Oat, Wild): 55%
pest or weed control at 31 g/ha (wild oat; Postemergence, 31 g ai/ha, scale 0 to 100 (0 no effect, 100 complete control), 13 to 15 days, read-out: Plant response rating, Oat, Wild): 35%
pest or weed control at 62 g/ha (wild oat; Postemergence, 62 g ai/ha, scale 0 to 100 (0 no effect, 100 complete control), read-out: Plant response rating, Oat, Wild): 40%
pest or weed control at 125 g/ha (chickweed; 125 g ai/ha, postemergence, read-out: Plant response rating (0 to 100), Chickweed): 100%
pest or weed control at 250 g/ha (chickweed; 250 g ai/ha, postemergence, read-out: Plant response rating (0 to 100), Chickweed): 100%
pest or weed control at 31 g/ha (chickweed; Postemergence, 31 g ai/ha, scale 0 to 100 (0 no effect, 100 complete control), 13 to 15 days, read-out: Plant response rating, Chickweed): 95%
pest or weed control at 62 g/ha (chickweed; Postemergence, 62 g ai/ha, scale 0 to 100 (0 no effect, 100 complete control), read-out: Plant response rating, Chickweed): 95%
